Publication PMC5908784, “Extracellular loops 2 and 3 of the calcitonin receptor selectively modify agonist binding and efficacy” (Biochemical Pharmacology, 2018)
Numbering of substitutions follows the chain as printed. Where no end group is shown, it is not given here.

Legend:
Assay in all cases: Homologous whole cell competition binding
Settings in all cases: homologous competition of 125I-sCT(8-32), whole cells, mean ± S.E.M., SEM
hCTR F356A = target: T1, hCTR F356A (Homo sapiens, UniProt P30988, F356A)
T1 construct: c-Myc (N); expressed in transfected cells
T1 sequence (P30988 25-474 F356A): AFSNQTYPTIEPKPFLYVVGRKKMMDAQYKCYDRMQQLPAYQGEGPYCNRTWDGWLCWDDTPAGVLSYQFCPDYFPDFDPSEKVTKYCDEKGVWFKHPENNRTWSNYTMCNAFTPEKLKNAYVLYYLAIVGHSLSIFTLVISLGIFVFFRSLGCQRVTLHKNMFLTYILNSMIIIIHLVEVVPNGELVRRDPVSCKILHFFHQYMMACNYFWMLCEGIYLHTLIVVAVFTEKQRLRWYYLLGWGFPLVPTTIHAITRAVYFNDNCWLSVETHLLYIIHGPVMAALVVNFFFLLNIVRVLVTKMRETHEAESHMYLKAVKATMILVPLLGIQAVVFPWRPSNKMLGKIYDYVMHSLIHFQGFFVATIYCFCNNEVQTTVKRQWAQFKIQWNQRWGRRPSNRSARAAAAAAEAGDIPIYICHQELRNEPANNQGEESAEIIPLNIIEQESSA
Procedure, shortened: (§1)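 Gamma counting of bound ^125I-sCT(8-32) after overnight 4 °C incubation of intact cells with tracer (two levels, 25–100 pM) plus unlabelled sCT(8-32) dilutions. Data normalized to total and 1 μM sCT(8-32) nonspecific binding; pKi via Cheng-Prusoff.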

hCTR M376A = target: T2, hCTR M376A (Homo sapiens, UniProt P30988, M376A)
T2 construct: c-Myc (N); expressed in transfected cells
T2 sequence (P30988 25-474 M376A): T1 sequence (P30988 25-474 F356A) with A332F, M352A
Procedure, shortened: as §1

hCTR R362A = target: T3, hCTR R362A (Homo sapiens, UniProt P30988, R362A)
T3 construct: expressed in transfected cells
T3 sequence (P30988 25-474 R362A): T1 sequence (P30988 25-474 F356A) with A332F, R338A
Procedure, shortened: as §1

hCTR V358A = target: T4, hCTR V358A (Homo sapiens, UniProt P30988, V358A)
T4 construct: c-Myc (N); expressed in transfected cells
T4 sequence (P30988 25-474 V358A): T1 sequence (P30988 25-474 F356A) with A332F, V334A
Procedure, shortened: as §1

VLGKLSQELHKLQTYPRTNTGSGTP-NH2 [sCT(8-32)]
Ki (hCTR F356A): 0.141 nM
Ki (hCTR M376A): 0.132 nM
Ki (hCTR R362A): 0.219 nM
Ki (hCTR V358A): 0.155 nM
